Reference: patent publication US5639765A, “Guanidinoalkyl glycine β-amino acids useful for inhibiting bone loss” (G. D. Searle & Co., priority 1995, dated 1997)
Structures can show the parent of a compound that is named as a salt.

Legend:
[1] = target: T1, Human vitronectin receptor (αv β3) (Homo sapiens, UniProt P05106+P06756); experiment: Solid Phase Receptor Assay, purified αv β3 (vitronectin receptor) competition with biotinylated vitronectin; type: binding; conditions: 1 nM biotinylated vitronectin, 2 h competition, room temperature, R = H, read-out: VnR/IC50
T1 construct: purified from human placenta; from tissue; host or cells: human placenta
Experimental: Human vitronectin receptor(αv β3) was purified from human placenta as previously described [Pytela et al., Methods in Enzymology, 144:475-489 (1987)]. Human vitronectin was purified from fresh frozen plasma as previously described [Yatohgo et al., Cell Structure and Function, 13:281-292 (1988)]. Biotinylated human vitronectin was prepared by coupling NHS-biotin from Pierce Chemical Company (Rockford, Ill.) to purified vitronectin as previously described [Charo et al., J. Biol. Chem., 266(3):1415-1421 (1991)]. Assay buffer, OPD substrate tablets, and RIA grade BSA were obtained from Sigma (St. Louis, Mo.). Anti-biotin antibody was obtained from Calbiochem (La Jolla, Calif.). GRGDSP peptide was purchased from Bachem (Torrance, Calif.). Linbro microtiter plates were obtained from Flow Labs (McLean, Va.). ADP reagent was obtained from Sigma (St. Louis, Mo.).
This assay was essentially the same as previously reported [Niiya et al., Blood, 70:475-483 (1987)]. The purified human vitronectin receptor (αv β3) was diluted from stock solutions to 1.0 μg/mL in Tris-buffered saline containing 1.0 mM Ca^++, Mg^++, and Mn^++, pH 7.4 (TBS^+++). The diluted receptor was immediately transferred to Linbro microtiter plates at 100 μL/well (100 ng receptor/well). The plates were sealed and incubated overnight at 4° C. to allow the receptor to bind to the wells. All remaining steps were at room temperature. The assay plates were emptied and 200 μL of 1% RIA grade BSA in TBS^+++ (TBS^+++ /BSA) were added to block exposed plastic surfaces. Following a 2 hour incubation, the assay plates were washed with TBS^+++ using a 96 well plate washer. Logarithmic serial dilution of the test compound and controls were made starting at a stock concentration of 2 mM and using 2 nM biotinylated vitronectin in TBS^+++ /BSA as the diluent. This premixing of labeled ligand with test (or control) ligand, and subsequent transfer of 50 μL aliquots to the assay plate was carried out with a CETUS Propette robot; the final concentration of the labeled ligand was 1 nM and the highest concentration of test compound was 1.0×10^-4 M. The competition occurred for two hours after which all wells were washed with a plate washer as before. Affinity purified horseradish peroxidase labeled goat anti-biotin antibody was diluted 1:3000 in TBS^+++ /BSA and 125 μL were added to each well. After 30 minutes, the plates were washed and incubated with OPD/H2 O2 substrate in 100 mM/L Citrate buffer, pH 5.0. The plate was read with a microtiter plate reader at a wavelength of 450 nm and when the maximum-binding control wells reached an absorbance of about 1.0, the final A450 were recorded for analysis. The data were analyzed using a macro written for use with the EXCEL™ spreadsheet program. The mean, standard deviation, and % CV were determined for duplicate concentrations. The mean A450 values were normalized to the mean of four maximum-binding controls (no competitor added)(B-MAX). The normalized values were subjected to a four parameter curve fit algorithm [Rodbard et al., Int. Atomic Energy.Agency, Vienna, pp 469 (1977)], plotted on a semi-log scale, and the computed IC50 and corresponding R^2 was reported. GRGDSP, a peptide fragment of fibrinogen, was included on each plate as a positive control.

osteoclastic activity [2] = conditions: cited from earlier work
osteoclastic activity [3] = conditions: cited from earlier work; remark: listed apart in the source

Molecule | IC50 [1] | inhibition of osteoclastic activity in vitro (osteoclastic activity [2]) | inhibition of osteoclastic activity in vivo (osteoclastic activity [3])
N=C(N)NCCCC(=O)NCC(=O)NC(CC(=O)O)c1cccnc1 (racemic) [Example 3, (±) β-[[2-[[4-[(aminoiminomethyl)amino]-1-oxobutyl]amino]-1-oxoethyl]amino]-3-pyridinepropanoic acid, bistrifluoroacetate salt] | 0.0231 µM | – | –
N=C(N)NCCCCCC(=O)NCC(=O)NC(CC(=O)O)c1cccnc1 (racemic) [Example 4, (±) β-[[2-[[6-[(aminoiminomethyl)amino]-1-oxohexyl]amino]-1-oxoethyl]amino]-3-pyridinepropanoic acid, bistrifluoroacetate salt] | 0.46 µM | – | –
N=C(N)NCCCC(=O)NCCC(=O)NC(CC(=O)O)c1cccnc1 (racemic) [Example 5, (±) β-[[3-[[4-[(aminoiminomethyl)amino]-1-oxobutyl]amino]-1-oxopropyl]amino]-3-pyridinepropanoic acid, bistrifluoroacetate salt] | 0.706 µM | – | –
N=C(N)NCC(CC(=O)NCC(=O)NC(CC(=O)O)c1cccnc1)c1ccccc1 (racemic) [Example 6, (±) β-[[2-[[4-[(aminoiminomethyl, amino]-1-oxo-3-phenylbutyl]amino]-1-oxoethyl]amino]-3-pyridinepropanoic acid, bistrifluoroacetate salt] | 0.0316 µM | – | –
N=C(N)NCCCCC(=O)NCC(=O)NC(CC(=O)O)c1cccnc1 (stereo not drawn) [Example 1, β-[[2-[[5-[(aminoiminomethyl]amino]-1-oxopentyl]amino]-1-oxoethyl]amino]-3-pyridinepropanoic acid, bistrifluoroacetate salt] | 0.0094 µM | – | –
echistatin | – | potent inhibitors | potent inhibitors
